Values belong to the compound of their own block, whether it stands above or below them.
Experiments:
[1] = system: ISC-enriched organoids in ENR+CD; assay: 384-well secondary screen in ENR+CD incl. early vs. full treatment, secreted LYZ (LYZ.NS, LYZ.S); assay type: cell-based, C57BL/6 mice; conditions: ENR+CD, across all doses
Text: We again assessed treatment effect size with replicate SSMD (using a difference between well replicates and median assay value for all same-plate control wells—see Materials and Methods, High-throughput screening: 384-well secondary screen format and early vs. full treatment analysis) and hits were considered statistically validated by an SSMD greater than the false-positive-derived cutoffs (βα1=0.89 for 8 replicates with alpha=0.05; see Materials and Methods, High-throughput screening: 384-well secondary screen format and early vs. full treatment analysis) for both LYZ.NS and LYZ.S assays (FIG. 7A). Per this new cutoff, 10 dose-treatment combinations corresponding to 7 small molecules were chosen as hits, with every passing dose-treatment having a greater than 0 ATP effect size.
For 384-well plate high-throughput screening, ISC-enriched organoids were passaged and split to single cells with TyrpLE (Thermo Fisher Scientific) and cultured for 2-3 days in ENR+CVY prior to transfer to a “2.5-D” 384-well plate culture system. To prepare for “2.5D” plating, cell-laden Matrigel and media were homogenized via mechanical disruption and centrifuged at 300 g for 3 min at 4° C. Supernatant was removed and the pellet washed and spun in basal culture medium repeatedly until the cloudy Matrigel above the cell pellet was gone. On the final wash, pellet was resuspended in basal culture medium, the number of organoids counted, and the cell pellet was resuspended in ENR+CD medium at ˜7 clusters/μL. 384-well plates were first filled with 10 μL of 70% Matrigel (30% basal media) coating in each well using a Tecan Evo 150 Liquid Handling Deck, and allowed to gel at 37° C. for 5 minutes. Then 30 μL of cell-laden media was plated at the center of each well of 384-well plates with the liquid handler, and the plates were spun down at 50 g for 1 minute to embed organoids on the Matrigel surface. Compound libraries were pinned into prepped cell plates using 50 nL pins into 30 μL media/well. Cells were cultured at 37° C. with 5% CO2 for six days in ENR+CD medium supplemented with the tested compounds with a media change at three days. On day six, lysozyme secretion and cell viability were assessed using Lysozyme Assay Kit (EnzChek) and CellTiter-Glo 3D Cell Viability Assay (Promega), respectively, according to the manufacturers' protocols. Briefly, screen plates were washed 3× with FluoroBrite basal media (2 mM GlutaMAX and 10 mM HEPES in FluoroBrite DMEM (Thermo Fisher Scientific)) using a BioTek 406 plate washer with 10 min incubations followed by a 1 min centrifugation at 200 g to settle media between washes. After removal of the third wash, 30 μL of non-stimulated FluoroBrite basal media was added to each screen well using a Tecan Evo 150 Liquid Handling Deck from a non-stimulated treatment master plate, and plates were incubated for 30 min at 37° C. After 30 minutes, the top 15 μL of media from each well of the screen plate was transferred to a non-stimulated LYZ assay plate containing 15 μL of 20× DQ LYZ assay working solution using a Tecan Evo 150 Liquid Handling Deck. The non-stimulated LYZ assay plate was covered, shaken for 10 min, incubated for 50 min at 37° C., then fluorescence measured (shake 10 s; […]/518 nm) using a Tecan M1000 Plate Reader. After the media transfer to the non-stimulated LYZ assay plate, the remaining media was removed from the screen plate and 30 μL of Stimulated FluoroBrite basal media (supplemented with 10 μM CCh) was added to each screen well using a Tecan Evo 150 Liquid Handling Deck from a stimulated treatment master plate, and plates were incubated for 30 min at 37° C. After 30 minutes, the top 15 μL of media from each well of the screen plate was transferred to a stimulated LYZ assay plate containing 15 μL of 20× DQ LYZ assay working solution using a Tecan Evo 150 Liquid Handling Deck. […]

6-day ENR+CD cells [2] = assay: Cell pellet ATP after short-term (3-hour) stimulation, 2.5-D 96-well platform; assay type: cell-based, murine; conditions: CCh: adj. p<0.01 for 10 and 100 μM doses
Text: We first sought to profile the potential short-term actors, IFN-γ, LPS, and CCh, and see if with the added resolution of this first-of-its-kind PC platform, we might be able to determine high-resolution EC50's. To generate sufficient cells for plating out all necessary conditions we first expanded and enriched ISCs in traditional 3-D culture and subsequently differentiated for 4 days towards PCs (ENR+CD). Next, we passaged and plated these cells into 96-well plates as 2.5-D and continued differentiating for an additional 2 days in ENR+CD. On day 6 of differentiation, each well was then washed with basal media repeatedly and stimulated with its respective agent, with a measurement of supernatant LYZ paired to cell pellet ATP (FIG. 2A). This screen was repeated on three separate occasions with cells from three distinct murine donors and analyzed combined. We first wanted to determine the approximate standardized effect size of each treatment at each dose, which was accomplished through the replicate-based strictly standardized mean difference (SSMD), an effect size measure based on the statistics of contrast variables, and particularly useful in screening applications as it is a measure which takes into account both mean difference and variance in a single measure. […]

6-day ENR+CD cells [3] = assay: Short-term (3-hour) stimulation of LYZ secretion, 2.5-D 96-well platform; assay type: cell-based, murine
Text: We first sought to profile the potential short-term actors, IFN-γ, LPS, and CCh, and see if with the added resolution of this first-of-its-kind PC platform, we might be able to determine high-resolution EC50's. To generate sufficient cells for plating out all necessary conditions we first expanded and enriched ISCs in traditional 3-D culture and subsequently differentiated for 4 days towards PCs (ENR+CD). Next, we passaged and plated these cells into 96-well plates as 2.5-D and continued differentiating for an additional 2 days in ENR+CD. On day 6 of differentiation, each well was then washed with basal media repeatedly and stimulated with its respective agent, with a measurement of supernatant LYZ paired to cell pellet ATP (FIG. 2A). This screen was repeated on three separate occasions with cells from three distinct murine donors and analyzed combined. We first wanted to determine the approximate standardized effect size of each treatment at each dose, which was accomplished through the replicate-based strictly standardized mean difference (SSMD), an effect size measure based on the statistics of contrast variables, and particularly useful in screening applications as it is a measure which takes into account both mean difference and variance in a single measure. […] In total, we see that our 2.5-D platform does provide a reasonable system for assessing and screening for potential short-term modulators of PC antimicrobial secretion.
Small intestinal crypts were isolated from C57BL/6 mice of both sexes, aged between three to six months in all experiments. Crypts were then cultured in a Matrigel culture system. Briefly, crypts were resuspended in basal culture medium (Advanced DMEM/F12 with 2 mM GlutaMAX and 10 mM HEPES; Thermo Fisher Scientific) at a 1:1 ratio with Corning™ Matrigel™ Membrane Matrix—GFR (Fisher Scientific) and plated at the center of each well of 24-well plates. […]

[4] = system: organoids differentiated under ENR+CV, ENR+CD, or ENR; assay: Western blotting for LYZ in organoids; assay type: cell-based, C57BL/6 mice; conditions: six days in ENR+CV
Text: ISC-enriched organoids cultured in 3D Matrigel with ENRCV media were passaged to 24-well plate in 3D Matrigel with ENRCV. At day zero, media were replaced to ENR or ENRCD with or without indicated compounds, and media were replaced every other day. At day six, cells were harvested from Matrigel by mechanical disruption and suspended in basal media. Cell pellets were lysed with Pierce® IP lysis buffer (ThermoFisher, 87787) containing Halt™ Protease Inhibitor Cocktail, EDTA-Free (ThermoFisher, 87785) after 3-minute centrifuge at 300×g at 4° C. Cell extracts were resolved by NuPAGE® SDS-PAGE Gel system (ThermoFisher) and electroblotted onto polyvinylidene difluoride membranes using Criterion™ Blotter (Biorad). The membranes were blocked with 2% Blotting-Grade Blocker (Biorad, 1706404) in TBS-T (50 mM Tris-HCl, 150 mM NaCl, and 0.1% Tween 20, pH 8.0) and then probed with appropriate antibodies. Detection was performed using ECL Select™ Western Blotting Detection Reagent (Amersham, 45-000-999) and ImageQuant LAS4000 (GE Healthcare).

ENR+CD organoids = assay: Flow cytometry analysis, 3D culture, XPO1 inhibitors; assay type: cell-based, C57BL/6 mice; conditions: 6-day ENR+CD organoids
Method: ISC-enriched organoids cultured in 3D Matrigel with ENRCV media were passaged to 24-well plate in 3D Matrigel with ENRCV. At day zero, media were replaced to ENRCD with or without indicated compounds, and media were replaced every other day. At day six, cells were washed with basal media, and then harvested from Matrigel by mechanical disruption in TrypLE Express (ThermoFisher, 12605010) to remove Matrigel and dissociate organoids to single cells. After vigorous pipetting and incubation at 37° C. for 20 min, dissociated organoids were strained through a 35 μm cell strainer into a tube (Falcon, 352235). The cell filtrate was centrifuged again at 300×g for 3 min at 4° C. to pellet the cells. Cell pellets were resuspended in FACS buffer (2% FBS in PBS), and then transferred to an ultra low-bind 96-well plate (Corning, 7007). Cells were stained with Zombie-violet viability dye (BioLegend, 423107) at 100× for viability staining and/or antibody staining solution. FITC-conjugated antibody for lysozyme (Dako, […]) and APC-conjugated antibody for CD24 (BioLegend, 138505) were used at 100× dilution. Flow cytometry was performed using an LSR Fortessa (BD; Koch Institute Flow Cytometry Core at MIT). The data were analyzed using FlowJo v10 software.

Structure (SMILES): COc1ccc(C2CNC(=O)C2)cc1OC1CCCC1 (stereo not drawn) [Rolipram]
ATP-normalized LYZ assays (LYZ.NS/ATP, LYZ.S/ATP), early versus full treatment [1]: do not see a trend or significant difference

EC50 (6-day ENR+CD cells [3]; 3-hour stimulation of 6-day ENR+CD cells, 9-well replicates from 3 bio. donors, read-out: EC50 for LYZ secretion (least-squares dose-response fit)): 5 µM
Structure (SMILES): C[N+](C)(C)CCOC(N)=O.[Cl-] [CCh, carbamyl choline]
effect on cellular ATP (6-day ENR+CD cells [2]): significant effect on cellular ATP
SSMD effect size as short-term modulator of LYZ secretion (6-day ENR+CD cells [3]; 3-hour stimulation, across all tested doses): strong effect

Structure (SMILES): CCC(=C/[C@H](C)C/C=C/C(C)=C/[C@@H](C)C(=O)[C@@H](C)[C@H](O)[C@@H](C)C/C(C)=C/C(=O)O)/C=C/[C@@H]1OC(=O)C=C[C@@H]1C [Leptomycin B]
LYZ abundance on a per-mass protein normalized basis (western blot) [4]: appreciably increase LYZ abundance
Paneth cell representation by flow cytometry (ENR+CD organoids): statistically significant increases in Paneth cell representation

— patent US20200237852A1, “Small Molecule Enhancers of Paneth Cell Function and Differentiation” (Massachusetts Institute of Technology, priority 2019, published 2020)
